Source: ChEMBL document CHEMBL5214929, “Updated chemical scaffolds of ABCG2 inhibitors and their structure-inhibition relationships for future development” (Eur J Med Chem, 2022)
Blank lines part the entries; values can stand above or below the compound they belong to.

What was measured:
HEK293 [1] = assay: Cytotoxicity against HEK293 cells expressing ABCG2-R-482 in presence of methotrexate; format: functional, cell-based; conditions: Homo sapiens
[2] = molecular target: T1, Broad substrate specificity ATP-binding cassette transporter ABCG2 (Homo sapiens, UniProt Q9UNQ0); assay: Inhibition of ABCG2 (unknown origin) in Sf9 membrane vesicles using [3H] methotrexate as substrate; format: cell membranes
T1 sequence (Q9UNQ0 whole entry): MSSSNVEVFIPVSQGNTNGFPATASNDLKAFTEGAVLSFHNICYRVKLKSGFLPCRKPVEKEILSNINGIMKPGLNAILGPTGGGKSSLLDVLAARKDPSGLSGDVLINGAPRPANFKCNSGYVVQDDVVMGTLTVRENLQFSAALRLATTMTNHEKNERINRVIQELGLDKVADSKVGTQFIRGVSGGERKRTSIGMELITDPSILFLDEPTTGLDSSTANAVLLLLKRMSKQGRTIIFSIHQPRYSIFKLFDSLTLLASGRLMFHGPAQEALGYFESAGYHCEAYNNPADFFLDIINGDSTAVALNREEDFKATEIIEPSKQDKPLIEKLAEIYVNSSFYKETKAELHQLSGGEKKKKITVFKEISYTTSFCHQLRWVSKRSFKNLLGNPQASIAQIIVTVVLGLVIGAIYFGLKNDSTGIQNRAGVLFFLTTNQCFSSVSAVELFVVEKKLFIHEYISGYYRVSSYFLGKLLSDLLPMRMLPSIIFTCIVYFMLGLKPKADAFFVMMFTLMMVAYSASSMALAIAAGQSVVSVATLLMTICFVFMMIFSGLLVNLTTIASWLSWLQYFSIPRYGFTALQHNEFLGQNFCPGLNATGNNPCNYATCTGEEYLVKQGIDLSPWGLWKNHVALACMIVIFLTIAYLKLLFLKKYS

[3] = Reversal of mitoxantrone resistance in human T8 cells; format: functional; conditions: T8 cell
MCF7 = assay: Cytotoxicity against human MCF7 cells assessed as increase in cytotoxic drug half inhibitory concentration; format: functional, cell-based
[4] = molecular target: T1, Broad substrate specificity ATP-binding cassette transporter ABCG2; assay: Inhibition of ABCG2 (unknown origin) overexpressing in dog MDCK-II-BCRP cells measured after 30 mins by flow cytometric analysis; format: cell-based
[5] = molecular target: T1, Broad substrate specificity ATP-binding cassette transporter ABCG2; assay: Inhibition of ABCG2 (unknown origin)
HEK293 [6] = assay: Cytotoxicity against HEK293 cells expressing ABCG2-482-T7 in presence of methotrexate; format: functional, cell-based; conditions: Homo sapiens
HEK293 [7] = assay: Cytotoxicity against HEK293 cells expressing ABCG2-482-R in presence of methotrexate; format: functional, cell-based; conditions: Homo sapiens
HEK293 [8] = assay: Cytotoxicity against HEK293 cells expressing ABCG2 in presence of methotrexate; format: functional, cell-based; conditions: Homo sapiens
S1-M1-80 = assay: Cytotoxicity against human S1M180 cells in presence of topotecan; format: functional, cell-based
HEK293 [9] = assay: Cytotoxicity against HEK293 cells expressing ABCG2-R-482 mutant assessed as decrease in mitoxantrone half inhibitory concentration; format: functional, cell-based; conditions: Homo sapiens
HEK293 [10] = assay: Cytotoxicity against HEK293 cells expressing ABCG2-R-482 wildtype assessed as decrease in mitoxantrone half inhibitory concentration; format: functional, cell-based; conditions: Homo sapiens

Structure (SMILES): Nc1ncnc2c1c(-c1ccc(Oc3ccccc3)cc1)nn2C1CCCC1
IC50 (HEK293 [1]): 57 nM

Structure (SMILES): C=CC(O)C#CC#CC/C=C\CCCCCCC (stereo not given)
IC50 [2]: 41700 nM

Structure (SMILES): C=CC(O)C#CC#CC(O)/C=C\CCCCCCC (stereo not given)
IC50 [2]: 29700 nM

Structure (SMILES): COc1ccc2c3c([nH]c2c1)[C@@H](CC(C)C)N1C(=O)[C@@H](CCC(=O)OC(C)(C)C)NC(=O)[C@@H]1C3
EC90 [3]: 23 nM

Structure (SMILES): CC(C)C[C@@H]1c2[nH]c3ccccc3c2C[C@H]2C(=O)N[C@H](CCCCNC(=O)OC(C)(C)C)C(=O)N12
EC90 [3]: 190 nM

Structure (SMILES): COc1ccc2c3c([nH]c2c1)[C@@H](C=C(C)C)N1C(=O)[C@@H]2CCCN2C(=O)[C@@H]1C3
IC50 (MCF7): 1000 nM

IC50 [4]: 43100 nM
Structure (SMILES): COc1ccc(-c2c3occc3c(OC[C@H]3OC3(C)C)c3ccc(=O)oc23)cc1OC

Structure (SMILES): CC(C)C[C@@H]1c2[nH]c3ccccc3c2C[C@H]2C(=O)N[C@H](CCC(=O)OC(C)(C)C)C(=O)N12
EC90 [3]: 85 nM

IC50 [5]: 1.5 nM
Structure (SMILES): Cn1cc(-c2cc3c(N4CCN(c5ncc([C@@](C)(N)c6ccc(F)cc6)cn5)CC4)ncnn3c2)cn1 [AVAPRITINIB]

Structure (SMILES): COc1cc2nccc(Oc3ccc(NC(=O)C4(C(=O)Nc5ccc(F)cc5)CC4)cc3)c2cc1OC [CABOZANTINIB]
IC50 (HEK293 [6]): 34 nM | IC50 (HEK293 [7]): 27 nM

Structure (SMILES): COc1cc2ncnc(Nc3ccc(F)c(Cl)c3)c2cc1NC(=O)/C=C/CN1CCCCC1 [DACOMITINIB ANHYDROUS]
IC50 (HEK293 [8]): 185 nM

Structure (SMILES): COc1cc2c(cc1OC)CN(CCc1ccc(NC(=O)c3cccc4c(=O)c5cccc(OC)c5[nH]c34)cc1)CC2 [ELACRIDAR]
EC90 [3]: 51 nM

Structure (SMILES): Cc1cn(-c2cc(NC(=O)c3ccc(C)c(Nc4nccc(-c5cccnc5)n4)c3)cc(C(F)(F)F)c2)cn1 [NILOTINIB]
IC50 (HEK293 [6]): 147 nM | IC50 (HEK293 [7]): 128 nM

Structure (SMILES): C=CC(=O)Nc1cccc(Nc2nc(Nc3ccc(N4CCN(C(C)=O)CC4)cc3OC)ncc2C(F)(F)F)c1 [ROCILETINIB]
IC50 (HEK293 [6]): 7.2 nM | IC50 (HEK293 [7]): 11.9 nM

Structure (SMILES): COc1cc2/c(=N/c3ccc(Br)cc3F)nc[nH]c2cc1OCC1CCN(C)CC1 [VANDETANIB]
IC50 (S1-M1-80): 1240 nM

Structure (SMILES): Cc1[nH]c(/C=C2\C(=O)Nc3ccc(F)cc32)c(C)c1C(=O)N[C@H]1CCN(C(=O)N(C)C)C1 [VOROLANIB]
IC50 (HEK293 [9]): 58 nM | IC50 (HEK293 [10]): 15.5 nM
